According to patent US12435046B2, “Alkynyl quinazoline compounds” (Black Diamond Therapeutics, Inc., priority 2019, dated 2025):

Tests used:
EGFR NPH = target: T1, EGFR NPH (Homo sapiens, UniProt P00533, INS773NPH); assay: BaF3 cell proliferation assay (CellTiterGlo), EGFR NPH; type: cell-based; conditions: Table A; BaF3 cells, 3 days
T1 construct: expressed in transfected cells; host or cells: BaF3 (murine pro-B) cells, retroviral transduction with pMXs-IRES-Blasticidin
Method: (§1) Retroviral Production: EGFR mutants were subcloned into pMXs-IRES-Blasticidin (RTV-016, Cell Biolabs, San Diego, CA). Retroviral expression vector retrovirus was produced by transient transfection of HEK 293T cells with the retroviral EGFR mutant expression vector pMXs-IRES-Blasticidin (RTV-016, Cell Biolabs), pCMV-Gag-Pol vector and pCMV-VSV-G-Envelope vector. Briefly, HEK 293T/17 cells were plated in 100 mm collagen coated plate (354450, Corning Life Sciences, Tewksbury, MA) (4×10^5 per plate) and incubated overnight. The next day, retroviral plasmids (3 ng of EGFR mutant, 1.0 ng of pCMV-Gag-Pol and 0.5 ng pCMV-VSV-G) were mixed in 500 n1 of Optimem (31985, Life Technologies). The mixture was incubated at room temperature for 5 min and then added to Optimem containing transfection reagent Lipofectamine (11668, Invitrogen) and incubated for 20 minutes. Mixture was then added dropwise to HEK 293T cells. The next day the medium was replaced with fresh culture medium and retrovirus was harvested @ 24 and 48 hrs.
(§2) Generation of EGFR mutant stable cell lines: BaF3 cells (1.5E5 cells) were infected with 1 ml of viral supernatant supplemented with 8 ng/ml polybrene by centrifuging for 30 min at 1000 rpm. Cells were placed in a 37° C. incubator overnight. Cells were then spun for 5 minutes to pellet the cells. Supernatant was removed and cells re-infected a fresh 1 ml of viral supernatant supplemented with 8 ng/ml polybrene by centrifuging for 30 min at 1000 rpm. Cells were placed in 37° C. incubator overnight. Cells were then maintained in RPMI containing 10% Heat Inactivated FBS, 2% L-glutamine containing 10 ng/ml IL-3. After 48 hours cells were selected for retroviral infection in 10 […] for one week. Blasticidin resistant populations were washed twice in phosphate buffered saline before plating in media lacking IL-3 to select for IL-3 independent growth.
(§3) Assay for cell proliferation: BaF3 cell lines were resuspended at 1.3E5 c/ml in RPMI containing 10% Heat Inactivated FBS, 2% L-glutamine and 1% Pen/Strep and dispensed in triplicate (17.5E4 c/well) into 96 well plates. To determine the effect of drug on cell proliferation, cells incubated for 3 days in the presence of vehicle control or test drug at varying concentrations. Inhibition of cell growth was determined by luminescent quantification of intracellular ATP content using CellTiterGlo (Promega), according to the protocol provided by the manufacturer. Comparison of cell number on day 0 versus 72 hours post drug treatment was used to plot dose-response curves. The number of viable cells was determined and normalized to vehicle-treated controls. Inhibition of proliferation, relative to vehicle-treated controls was expressed as a fraction of 1 and graphed using PRISM® software (Graphpad Software, San Diego, CA). EC50 values were determined with the same application.

HER2 YVMA = target: T2, HER2 YVMA (Homo sapiens, UniProt P04626, INS775YVMA); assay: BaF3 cell proliferation assay (CellTiterGlo), HER2 YVMA; type: cell-based; conditions: Table A; BaF3 cells, 3 days
T2 construct: expressed in transfected cells; host or cells: BaF3 (murine pro-B) cells

EGFR V3 = target: T3, EGFR V3 (Homo sapiens, UniProt P00533, DELINS30-297G); assay: BaF3 cell proliferation assay (CellTiterGlo), EGFR V3; type: cell-based; conditions: BaF3 cells, 3 days
T3 construct: expressed in transfected cells; host or cells: BaF3 (murine pro-B) cells, retroviral transduction with pMXs-IRES-Blasticidin
Procedure, shortened: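 BaF3 cells made IL-3-independent by retroviral expression of each EGFR or HER2 mutant were treated in triplicate with compound for 72 h. Viability was read by CellTiterGlo ATP luminescence and normalised to vehicle, and EC50 was fitted from dose-response curves.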

HER2 S310F = target: T4, HER2 S310F (Homo sapiens, UniProt P04626, S310F); assay: BaF3 cell proliferation assay (CellTiterGlo), HER2 S310F; type: cell-based; conditions: Table A; BaF3 cells, 3 days
T4 construct: expressed in transfected cells; host or cells: BaF3 (murine pro-B) cells

EGFR SVD = target: T5, EGFR SVD (Homo sapiens, UniProt P00533, INS770SVD); assay: BaF3 cell proliferation assay (CellTiterGlo), EGFR SVD; type: cell-based; conditions: Table A; BaF3 cells, 3 days
T5 construct: expressed in transfected cells; host or cells: BaF3 (murine pro-B) cells, retroviral transduction with pMXs-IRES-Blasticidin
Method: as §1, §2, §3

EGFR wt = target: T6, EGFR wt (Homo sapiens, UniProt P00533); assay: BaF3 cell proliferation assay (CellTiterGlo), EGFR wt; type: cell-based; conditions: BaF3 cells, 3 days
T6 construct: expressed in transfected cells; host or cells: BaF3 (murine pro-B) cells, retroviral transduction with pMXs-IRES-Blasticidin
Procedure, shortened: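 BaF3 cells engineered by retroviral transduction to express EGFR and selected for blasticidin resistance and IL-3 independent growth were suspended at 1.3E5 c/ml in RPMI with 10% heat inactivated FBS, 2% L-glutamine and 1% Pen/Strep. They were plated in triplicate in 96 well plates and exposed to vehicle or varying drug concentrations for 3 days. Viability was quantified by CellTiterGlo ATP luminescence, normalized to vehicle, and curves fitted in PRISM.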

EGFR G598V = target: T7, EGFR G598V (Homo sapiens, UniProt P00533, G598V); assay: BaF3 cell proliferation assay (CellTiterGlo), EGFR G598V; type: cell-based; conditions: Table B; BaF3 cells, 3 days
T7 construct: expressed in transfected cells; host or cells: BaF3 (murine pro-B) cells, retroviral transduction with pMXs-IRES-Blasticidin
Method: as §1, with “The mixture was incubated at room temperature for 5 min and then added to Optimem containing transfection reagent Lipofectamine (11668, Invitrogen) and incubated for 20 minutes. Mixture was then added dropwise to HEK 293T cells. The next day the medium was replaced with fresh culture medium and retrovirus was harvested @ 24 and 48 hrs.” left out
as §3, with “To determine the effect of drug on cell proliferation, cells incubated for 3 days in the presence of vehicle control or test drug at varying concentrations.” left out, “Comparison of cell number on day 0 versus 72 hours post drug treatment was used to plot dose-response curves.” left out

EGFR V2 = target: T8, EGFR V2 (Homo sapiens, UniProt P00533, DEL545-627); assay: BaF3 cell proliferation assay (CellTiterGlo), EGFR V2; type: cell-based; conditions: Table B; BaF3 cells, 3 days
T8 construct: expressed in transfected cells; host or cells: BaF3 (murine pro-B) cells, retroviral transduction with pMXs-IRES-Blasticidin
Method: as §1, with “The mixture was incubated at room temperature for 5 min and then added to Optimem containing transfection reagent Lipofectamine (11668, Invitrogen) and incubated for 20 minutes. Mixture was then added dropwise to HEK 293T cells. The next day the medium was replaced with fresh culture medium and retrovirus was harvested @ 24 and 48 hrs.” left out
as §3, with “To determine the effect of drug on cell proliferation, cells incubated for 3 days in the presence of vehicle control or test drug at varying concentrations.” left out, “Comparison of cell number on day 0 versus 72 hours post drug treatment was used to plot dose-response curves.” left out

EGFR V6 = target: T9, EGFR V6 (Homo sapiens, UniProt P00533, DEL434-544); assay: BaF3 cell proliferation assay (CellTiterGlo), EGFR V6; type: cell-based; conditions: Table B; BaF3 cells, 3 days
T9 construct: expressed in transfected cells; host or cells: BaF3 (murine pro-B) cells, retroviral transduction with pMXs-IRES-Blasticidin
Method: as §1, with “The mixture was incubated at room temperature for 5 min and then added to Optimem containing transfection reagent Lipofectamine (11668, Invitrogen) and incubated for 20 minutes. Mixture was then added dropwise to HEK 293T cells. The next day the medium was replaced with fresh culture medium and retrovirus was harvested @ 24 and 48 hrs.” left out
as §3, with “To determine the effect of drug on cell proliferation, cells incubated for 3 days in the presence of vehicle control or test drug at varying concentrations.” left out, “Comparison of cell number on day 0 versus 72 hours post drug treatment was used to plot dose-response curves.” left out

EGFR A289V = target: T10, EGFR A289V (Homo sapiens, UniProt P00533, A289V); assay: BaF3 cell proliferation assay (CellTiterGlo), EGFR A289V; type: cell-based; conditions: Table B; BaF3 cells, 3 days
T10 construct: expressed in transfected cells; host or cells: BaF3 (murine pro-B) cells, retroviral transduction with pMXs-IRES-Blasticidin
Method: as §1, with “The mixture was incubated at room temperature for 5 min and then added to Optimem containing transfection reagent Lipofectamine (11668, Invitrogen) and incubated for 20 minutes. Mixture was then added dropwise to HEK 293T cells. The next day the medium was replaced with fresh culture medium and retrovirus was harvested @ 24 and 48 hrs.” left out
as §3, with “To determine the effect of drug on cell proliferation, cells incubated for 3 days in the presence of vehicle control or test drug at varying concentrations.” left out, “Comparison of cell number on day 0 versus 72 hours post drug treatment was used to plot dose-response curves.” left out

GBM tumors = conditions: phase 2 study, GBM patients, erlotinib in combination with radiation and temozolomide; cited from earlier work

T2 sequence (P04626 with tags, fused parts or gaps INS775YVMA): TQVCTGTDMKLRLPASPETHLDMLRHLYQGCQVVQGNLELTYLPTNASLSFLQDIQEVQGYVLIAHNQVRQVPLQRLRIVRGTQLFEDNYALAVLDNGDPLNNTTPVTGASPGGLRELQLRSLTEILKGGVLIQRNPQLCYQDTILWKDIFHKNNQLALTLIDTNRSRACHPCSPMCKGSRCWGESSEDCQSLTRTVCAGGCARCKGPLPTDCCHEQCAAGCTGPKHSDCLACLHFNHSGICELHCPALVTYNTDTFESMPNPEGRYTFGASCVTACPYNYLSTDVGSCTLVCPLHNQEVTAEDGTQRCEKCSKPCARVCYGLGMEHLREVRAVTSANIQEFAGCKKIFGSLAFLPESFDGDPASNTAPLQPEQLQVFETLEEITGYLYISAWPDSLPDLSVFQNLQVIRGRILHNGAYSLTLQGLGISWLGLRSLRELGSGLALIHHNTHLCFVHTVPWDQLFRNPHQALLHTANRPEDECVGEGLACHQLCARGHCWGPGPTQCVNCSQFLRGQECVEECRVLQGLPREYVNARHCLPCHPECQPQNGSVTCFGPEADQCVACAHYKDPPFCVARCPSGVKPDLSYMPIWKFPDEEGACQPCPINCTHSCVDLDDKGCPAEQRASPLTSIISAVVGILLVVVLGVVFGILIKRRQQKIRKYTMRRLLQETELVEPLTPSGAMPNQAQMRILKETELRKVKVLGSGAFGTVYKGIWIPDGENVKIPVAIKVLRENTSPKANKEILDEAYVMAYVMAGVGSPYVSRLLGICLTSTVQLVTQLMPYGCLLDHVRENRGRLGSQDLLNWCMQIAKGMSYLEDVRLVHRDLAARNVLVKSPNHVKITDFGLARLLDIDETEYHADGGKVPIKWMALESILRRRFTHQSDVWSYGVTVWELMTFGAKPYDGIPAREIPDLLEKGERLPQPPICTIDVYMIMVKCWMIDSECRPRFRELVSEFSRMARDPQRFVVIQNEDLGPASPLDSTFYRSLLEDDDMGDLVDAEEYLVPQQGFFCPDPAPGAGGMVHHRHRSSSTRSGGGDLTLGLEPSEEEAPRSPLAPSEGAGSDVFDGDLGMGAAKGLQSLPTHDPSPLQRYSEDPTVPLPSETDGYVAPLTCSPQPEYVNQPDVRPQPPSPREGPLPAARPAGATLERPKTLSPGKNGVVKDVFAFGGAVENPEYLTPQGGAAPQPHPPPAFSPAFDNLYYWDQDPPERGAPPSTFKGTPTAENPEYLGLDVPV
T5 sequence (P00533 with tags, fused parts or gaps INS770SVD): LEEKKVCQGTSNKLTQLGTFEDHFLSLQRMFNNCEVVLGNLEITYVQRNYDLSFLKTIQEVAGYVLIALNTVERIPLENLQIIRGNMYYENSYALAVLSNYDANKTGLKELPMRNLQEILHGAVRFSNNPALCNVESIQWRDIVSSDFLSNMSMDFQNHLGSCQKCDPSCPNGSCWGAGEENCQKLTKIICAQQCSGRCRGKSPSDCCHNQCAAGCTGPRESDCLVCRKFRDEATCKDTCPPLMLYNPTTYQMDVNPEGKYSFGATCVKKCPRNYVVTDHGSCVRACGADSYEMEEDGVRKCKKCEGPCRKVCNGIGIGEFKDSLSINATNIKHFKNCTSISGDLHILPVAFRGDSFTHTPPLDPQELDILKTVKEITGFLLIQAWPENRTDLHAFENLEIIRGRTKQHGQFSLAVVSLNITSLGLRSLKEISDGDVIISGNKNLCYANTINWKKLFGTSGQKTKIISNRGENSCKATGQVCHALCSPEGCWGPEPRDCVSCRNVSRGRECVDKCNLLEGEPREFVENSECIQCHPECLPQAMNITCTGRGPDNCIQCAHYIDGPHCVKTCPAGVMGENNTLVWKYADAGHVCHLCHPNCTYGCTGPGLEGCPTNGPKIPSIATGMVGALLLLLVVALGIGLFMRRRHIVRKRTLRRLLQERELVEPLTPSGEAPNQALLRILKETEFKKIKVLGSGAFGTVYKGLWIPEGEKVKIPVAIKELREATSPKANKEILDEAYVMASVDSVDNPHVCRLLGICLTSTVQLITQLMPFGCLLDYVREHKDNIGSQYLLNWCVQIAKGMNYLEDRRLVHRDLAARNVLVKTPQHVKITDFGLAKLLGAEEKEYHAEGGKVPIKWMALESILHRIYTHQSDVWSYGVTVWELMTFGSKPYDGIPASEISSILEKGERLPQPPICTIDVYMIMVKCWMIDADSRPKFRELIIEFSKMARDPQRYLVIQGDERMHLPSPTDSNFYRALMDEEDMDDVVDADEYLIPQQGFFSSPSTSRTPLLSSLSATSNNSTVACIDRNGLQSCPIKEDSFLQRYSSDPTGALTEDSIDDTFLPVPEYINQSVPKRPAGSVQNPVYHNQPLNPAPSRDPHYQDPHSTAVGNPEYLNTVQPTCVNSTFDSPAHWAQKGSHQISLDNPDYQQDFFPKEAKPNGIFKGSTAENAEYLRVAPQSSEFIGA
T6 sequence (P00533 25-1210): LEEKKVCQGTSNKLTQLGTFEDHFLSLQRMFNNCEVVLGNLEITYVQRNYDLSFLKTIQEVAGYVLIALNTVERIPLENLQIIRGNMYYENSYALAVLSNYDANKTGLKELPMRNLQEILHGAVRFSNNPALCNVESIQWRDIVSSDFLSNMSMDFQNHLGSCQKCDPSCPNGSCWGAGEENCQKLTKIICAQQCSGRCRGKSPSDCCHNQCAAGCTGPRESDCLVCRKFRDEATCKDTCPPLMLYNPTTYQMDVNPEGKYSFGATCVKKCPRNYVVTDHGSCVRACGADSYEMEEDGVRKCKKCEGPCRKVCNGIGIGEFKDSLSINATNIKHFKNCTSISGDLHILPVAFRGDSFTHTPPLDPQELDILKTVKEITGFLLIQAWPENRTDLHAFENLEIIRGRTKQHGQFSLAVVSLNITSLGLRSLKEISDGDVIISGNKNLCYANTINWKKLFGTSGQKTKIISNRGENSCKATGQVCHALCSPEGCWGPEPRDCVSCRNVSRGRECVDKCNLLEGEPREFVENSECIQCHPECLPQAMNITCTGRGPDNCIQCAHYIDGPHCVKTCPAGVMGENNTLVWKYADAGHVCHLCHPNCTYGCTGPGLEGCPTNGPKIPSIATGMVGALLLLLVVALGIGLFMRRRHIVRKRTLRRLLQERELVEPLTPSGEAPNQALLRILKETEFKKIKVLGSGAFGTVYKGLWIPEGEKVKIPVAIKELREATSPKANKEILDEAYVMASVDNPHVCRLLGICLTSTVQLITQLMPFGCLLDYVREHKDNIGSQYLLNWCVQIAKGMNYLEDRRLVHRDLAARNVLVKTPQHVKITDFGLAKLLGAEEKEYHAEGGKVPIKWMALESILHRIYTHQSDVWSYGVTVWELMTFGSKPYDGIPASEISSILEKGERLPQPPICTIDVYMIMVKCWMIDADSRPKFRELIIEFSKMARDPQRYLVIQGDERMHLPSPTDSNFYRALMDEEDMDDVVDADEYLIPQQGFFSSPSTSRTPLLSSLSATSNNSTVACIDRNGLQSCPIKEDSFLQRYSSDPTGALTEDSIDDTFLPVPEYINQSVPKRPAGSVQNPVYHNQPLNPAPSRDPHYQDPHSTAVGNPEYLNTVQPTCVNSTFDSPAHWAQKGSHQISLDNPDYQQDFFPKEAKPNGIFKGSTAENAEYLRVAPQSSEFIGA
T4 sequence (P04626 23-1255 S310F): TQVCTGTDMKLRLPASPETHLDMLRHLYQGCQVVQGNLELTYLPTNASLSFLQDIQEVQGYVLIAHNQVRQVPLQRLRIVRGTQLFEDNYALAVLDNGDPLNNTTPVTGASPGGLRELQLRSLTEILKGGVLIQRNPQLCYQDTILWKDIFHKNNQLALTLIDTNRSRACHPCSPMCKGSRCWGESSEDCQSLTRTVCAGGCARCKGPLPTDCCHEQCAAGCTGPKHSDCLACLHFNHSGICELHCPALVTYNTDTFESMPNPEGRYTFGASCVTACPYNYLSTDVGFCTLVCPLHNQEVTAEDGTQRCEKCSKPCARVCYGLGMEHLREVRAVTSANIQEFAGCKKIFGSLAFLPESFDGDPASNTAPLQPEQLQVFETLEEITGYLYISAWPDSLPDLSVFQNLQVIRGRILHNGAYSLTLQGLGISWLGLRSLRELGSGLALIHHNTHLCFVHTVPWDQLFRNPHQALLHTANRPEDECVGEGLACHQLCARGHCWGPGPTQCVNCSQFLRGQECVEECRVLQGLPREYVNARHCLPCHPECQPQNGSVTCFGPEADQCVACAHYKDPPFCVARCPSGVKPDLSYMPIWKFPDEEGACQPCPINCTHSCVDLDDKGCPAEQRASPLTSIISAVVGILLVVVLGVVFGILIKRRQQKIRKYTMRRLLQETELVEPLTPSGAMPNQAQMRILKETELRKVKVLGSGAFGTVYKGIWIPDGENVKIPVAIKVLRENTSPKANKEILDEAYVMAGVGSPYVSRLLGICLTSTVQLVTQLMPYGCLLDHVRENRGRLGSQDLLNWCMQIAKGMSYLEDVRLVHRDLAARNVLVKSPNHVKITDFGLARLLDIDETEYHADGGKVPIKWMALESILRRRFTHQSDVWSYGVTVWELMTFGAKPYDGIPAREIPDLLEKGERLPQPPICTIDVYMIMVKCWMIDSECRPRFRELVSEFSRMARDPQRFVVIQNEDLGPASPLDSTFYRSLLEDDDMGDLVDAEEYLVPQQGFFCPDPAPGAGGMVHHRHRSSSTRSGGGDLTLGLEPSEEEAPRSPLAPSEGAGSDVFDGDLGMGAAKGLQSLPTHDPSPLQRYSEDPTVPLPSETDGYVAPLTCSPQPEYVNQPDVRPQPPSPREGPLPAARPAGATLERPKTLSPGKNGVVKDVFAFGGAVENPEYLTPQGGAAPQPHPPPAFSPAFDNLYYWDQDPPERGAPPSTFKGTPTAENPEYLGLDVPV

Row | Structure (SMILES) | IC50 (EGFR NPH) | IC50 (HER2 YVMA) | IC50 (EGFR V3; Table A) | IC50 (HER2 S310F) | IC50 (EGFR SVD) | IC50 (EGFR wt; Table A) | IC50 (EGFR G598V) | IC50 (EGFR V2) | IC50 (EGFR V3; Table B) | IC50 (EGFR V6) | IC50 (EGFR A289V) | IC50 (EGFR wt; Table B) | median OS (mOS) (GBM tumors) | median PFS (mPFS) (GBM tumors)
1 | C=CC(=O)Nc1cc2c(Nc3cccc(Cl)c3F)ncnc2cc1C#C[C@@]1(C)CCN(C)C1 [Compound 2, (R)—N-(4-((3-chloro-2-fluorophenyl)amino)-7-((1,3-dimethylpyrrolidin-3-yl)ethynyl)quinazolin-6-yl)acrylamide] | 50 to 100 nM | 100 to 500 nM | ≤ 50 nM | 50 to 100 nM | 100 to 500 nM | 100 to 500 nM |  |  |  |  |  |  |  | 
2 | C=CC(=O)Nc1cc2c(Nc3cccc(Cl)c3F)ncnc2cc1C#C[C@]1(C)CCN(C)C1 [Compound 3, (S)—N-(4-((3-chloro-2-fluorophenyl)amino)-7-((1,3-dimethylpyrrolidin-3-yl)ethynyl)quinazolin-6-yl)acrylamide] | 50 to 100 nM | 100 to 500 nM | ≤ 50 nM | 50 to 100 nM | 100 to 500 nM | 50 to 100 nM |  |  |  |  |  |  |  | 
3 | C=CC(=O)Nc1cc2c(Nc3ccc(OCc4ccccn4)c(Cl)c3)ncnc2cc1C#CC1(C)CCN(C)C1 (stereo not drawn) [Compound 12, N-(4-((3-chloro-4-(pyridin-2-ylmethoxy)phenyl)amino)-7-((1,3-dimethylpyrrolidin-3-yl)ethynyl)quinazolin-6-yl)acrylamide] | ≤ 50 nM | ≤ 50 nM | ≤ 50 nM | ≤ 50 nM | ≤ 50 nM | > 500 nM |  |  |  |  |  |  |  | 
4 | CN1C[C@H]2C[C@@]2(C#Cc2cc3ncnc(Nc4cccc(Cl)c4F)c3cc2NC(=O)/C=C/CN2CCOCC2)C1 [Compound 37, (E)-N-(4-((3-chloro-2-fluorophenyl)amino)-7-(((1R,5S)-3-methyl-3-azabicyclo[3.1.0]hexan-1-yl)ethynyl)quinazolin-6-yl)-4-morpholinobut-2-enamide] |  | 100 to 500 nM | ≤ 50 nM | 100 to 500 nM |  | ≤ 50 nM | ≤ 10 nM | ≤ 10 nM | 10 to 25 nM | ≤ 10 nM | ≤ 10 nM | 25 to 50 nM |  | 
5 | C#Cc1cccc(Nc2ncnc3cc(OCCOC)c(OCCOC)cc23)c1 [erlotinib] |  |  |  |  |  |  |  |  |  |  |  |  | 8.6 months | 2.8 months
